Measured values: patent publication US20260199323A1, “LIGAND COMPOUNDS FOR E3 UBIQUITIN LIGASE, PROTEIN DEGRADERS DEVELOPED ON BASIS OF LIGAND COMPOUNDS, AND USES THEREOF” (GLUETACS THERAPEUTICS (SHANGHAI) CO., LTD., priority 2021, published 2026)
Read-outs that look alike come from different tables or passages of the source.

What was measured:
Assay type in all cases: cell-based, Human
CAL-62 = experiment: CCK-8 tumor cell proliferation, CAL-62; set-up: IC50 for inhibiting the proliferation of tumor cells, CAL-62: scale not given here; settings: for IC50 for inhibiting the proliferation of tumor cells, CAL-62: 72 h; for IC50: Homo sapiens, Table 18, FAK inhibitor based, CAL-62, read-out: IC50 inhibiting proliferation of tumor cells, CAL-62
Protocol: (§1) The tumor cells used herein were cultured in a cell culture medium listed in table 4 at 37° C. in an incubator with 5% CO2. Prior to experimentation, all cells used were correctly identified by STR profiling, and tested negative for mycoplasma through routine screenings.
(§2) IC50 values of the compounds of the present disclosure (including the compounds in Tables 1 and 3, and compounds of examples) were measured using the Meilun Cell Counting Kit-8 kit from Dalian Meilun Biotech Co., Ltd. Assay details are as follows: tumor cells were seeded in a 96-well plate at a density listed in Table 5. After 24 h, 100 μL of the inoculated cells were treated with 0.5 μL of the compounds of the present disclosure (including the compounds in Tables 1 and 3, and compounds of examples) at 10 different successively decreasing concentrations (starting at the highest concentration of 10 μM; 5-fold serial dilutions). After the cells were treated with the compounds of the present disclosure for a period of time, the cell viability detection reagent was added to the culture medium for cell viability assessment according to the instructions provided with the CCK-8 kit. […] The growth inhibition of the compounds of the present disclosure on cells was plotted by Prism Graphpad software, and the IC50 values of the compounds of the present disclosure were calculated therefrom.

CCRF-CEM = experiment: CCK-8 tumor cell proliferation, CCRF-CEM; set-up: IC50 for inhibiting the proliferation of tumor cells, CCRF-CEM: scale not given here; settings: for IC50 for inhibiting the proliferation of tumor cells, CCRF-CEM: 96 h
Protocol: as §1, §2

SR = experiment: CCK-8 tumor cell proliferation, SR; settings: for IC50: Homo sapiens, SR, read-out: IC50 inhibiting proliferation of tumor cells, SR
Protocol: as §1, §2

MDA-MB-231 = experiment: CCK-8 tumor cell proliferation, MDA-MB-231; settings: Homo sapiens; Table 18, FAK inhibitor based; MDA-MB-231; read-out: IC50 inhibiting proliferation of tumor cells, MDA-MB-231
Protocol: as §1, §2

SW620 = experiment: CCK-8 tumor cell proliferation, SW620; settings: Homo sapiens, SW-620; Table 14, designed based on CDK4/6 inhibitors; 96 h; read-out: IC50 for inhibiting the proliferation of tumor cells, SW620
Protocol: as §1, §2

[1] = Table 12, designed based on CDK9 inhibitors

COc1cc(Nc2c(C#N)cnc3cc(OCCCN4CCN(Cc5ccc6c(c5)CN(C5CCC(=O)NC5=O)C6=O)CC4)c(OC)cc23)c(Cl)cc1Cl (stereo not shown) [GT-02968, 4-((2,4-dichloro-5-methoxyphenyl)amino)-7-(3-(4-((2-(2,6-dioxopiperidin-3-yl)-1-oxoisoindolin-5-yl)methyl)piperazin-1-yl)propoxy)-6-methoxyquinoline-3-carbonitrile]
IC50 for inhibiting the proliferation of tumor cells, CAL-62 (CAL-62; Table 13, designed based on BCR-ABL inhibitors): A+

Cc1sc2c(c1C)C(c1ccc(Cl)cc1)=N[C@@H](CC(=O)NCc1ccc3c(c1)CN(C1CCC(=O)NC1=O)C3=O)c1nnc(C)n1-2 (stereo partly drawn) [GT-03378, 2-((S)-4-(4-chlorophenyl)-2,3,9-trimethyl-6H-thieno[3,2-f][1,2,4]triazolo[4,3-a][1,4]diazepin-6-yl)-N-((2-(2,6-dioxopiperidin-3-yl)-1-oxoisoindolin-5-yl)methyl)acetamide]
IC50 for inhibiting the proliferation of tumor cells, CCRF-CEM (CCRF-CEM; Table 16, designed based on BET inhibitors): A+

COc1cc(N2CCC(N(C)Cc3ccc4c(c3)C(=O)N(C3CCC(=O)NC3=O)C4=O)CC2)ccc1Nc1ncc(Cl)c(Nc2ccccc2P(C)(C)=O)n1 (stereo not shown) [GT-03602, 5-(((1-(4-((5-chloro-4-((2-(dimethylphosphoryl)phenyl)amino)pyrimidin-2-yl)amino)-3-methoxyphenyl)piperidin-4-yl)(methyl)amino)methyl)-2-(2,6-dioxopiperidin-3-yl)isoindoline-1,3-dione]
IC50 (SR; Table 15, ALK inhibitor based): 50 to 100 nM

CN(Cc1ccc2c(c1)CN(C1CCC(=O)NC1=O)C2=O)C1CCN(c2ccc(Nc3ncc(C(F)(F)F)c(NCc4cccc(N(C)S(C)(=O)=O)c4)n3)cc2)CC1 (stereo not shown) [GT-03677, N-(3-(((2-((4-(4-(((2-(2,6-dioxopiperidin-3-yl)-1-oxoisoindolin-5-yl)methyl)(methyl)amino)piperidin-1-yl)phenyl)amino)-5-(trifluoromethyl)pyrimidin-4-yl)amino)methyl)phenyl)-N-methylmethanesulfonamide]
IC50 (MDA-MB-231): < 50 nM

CN(c1cccc(CNc2nc(Nc3ccc(N4CCC(N5CCN(Cc6ccc7c(c6)CN(C6CCC(=O)NC6=O)C7=O)CC5)CC4)cc3)ncc2C(F)(F)F)c1)S(C)(=O)=O (stereo not shown) [GT-03678, N-(3-(((2-((4-(4-(4-((2-(2,6-dioxopiperidin-3-yl)-1-oxoisoindolin-5-yl)methyl)piperazin-1-yl)piperidin-1-yl)phenyl)amino)-5-(trifluoromethyl)pyrimidin-4-yl)amino)methyl)phenyl)-N-methylmethanesulfonamide]
IC50 (MDA-MB-231): < 50 nM

Cc1nc2c(F)cc(-c3nc(Nc4ccc(N5CCN(Cc6ccc7c(c6)CN(C6CCC(=O)NC6=O)C7=O)CC5)cn4)ncc3F)cc2n1C(C)C (stereo not shown) [GT-03688, 3-(5-((4-(6-((5-fluoro-4-(4-fluoro-1-isopropyl-2-methyl-1H-benzo[d]imidazol-6-yl)pyrimidin-2-yl)amino)pyridin-3-yl)piperazin-1-yl)methyl)-1-oxoisoindolin-2-yl)piperidine-2,6-dione]
IC50 for inhibiting the proliferation of tumor cells, SR (SR; Table 14, designed based on CDK4/6 inhibitors, 72 h): A+

Cc1cnc(Nc2ccc(N3CCC(N(C)Cc4ccc5c(c4)CN(C4CCC(=O)NC4=O)C5=O)CC3)cc2)nc1Nc1cccc(S(=O)(=O)NC(C)(C)C)c1 (stereo not shown) [GT-03690, N-(tert-butyl)-3-((2-((4-(4-(((2-(2,6-dioxopiperidin-3-yl)-1-oxoisoindolin-5-yl)methyl)(methyl)amino)piperidin-1-yl)phenyl)amino)-5-methylpyrimidin-4-yl)amino)benzenesulfonamide]
IC50 (MDA-MB-231): < 50 nM

Cc1cnc(Nc2ccc(N3CCC(N4CCN(Cc5ccc6c(c5)CN(C5CCC(=O)NC5=O)C6=O)CC4)CC3)cc2)nc1Nc1cccc(S(=O)(=O)NC(C)(C)C)c1 (stereo not shown) [GT-03709, N-(tert-butyl)-3-((2-((4-(4-(4-((2-(2,6-dioxopiperidin-3-yl)-1-oxoisoindolin-5-yl)methyl)piperazin-1-yl)piperidin-1-yl)phenyl)amino)-5-methylpyrimidin-4-yl)amino)benzenesulfonamide]
IC50 (MDA-MB-231): 1000 to 5000 nM

CNC(=O)c1ccccc1Nc1cc(Nc2ccc(N3CCN(Cc4cccc5c4CN(C4CCC(=O)NC4=O)C5=O)CC3)cc2OC)ncc1C(F)(F)F (stereo not shown) [GT-03718, 2-((2-((4-(4-((2-(2,6-dioxopiperidin-3-yl)-1-oxoisoindolin-4-yl)methyl)piperazin-1-yl)-2-methoxyphenyl)amino)-5-(trifluoromethyl)pyridin-4-yl)amino)-N-methylbenzamide]
IC50 (CAL-62): 100 to 500 nM | IC50 (MDA-MB-231): 1000 to 5000 nM | IC50 (SR; Table 18, FAK inhibitor based): 100 to 500 nM

CNC(=O)c1ccccc1Nc1cc(Nc2ccc(N3CCC(N(C)Cc4cc5c(cc4F)C(=O)N(C4CCC(=O)NC4=O)C5)CC3)cc2OC)ncc1C(F)(F)F (stereo not shown) [GT-03729, 2-((2-((4-(4-(((2-(2,6-dioxopiperidin-3-yl)-6-fluoro-1-oxoisoindolin-5-yl)methyl)(methyl)amino)piperidin-1-yl)-2-methoxyphenyl)amino)-5-(trifluoromethyl)pyridin-4-yl)amino)-N-methylbenzamide]
IC50 (CAL-62): 50 to 100 nM | IC50 (MDA-MB-231): 50 to 100 nM | IC50 (SR; Table 18, FAK inhibitor based): < 50 nM

CNC(=O)c1ccccc1Nc1cc(Nc2ccc(N3CCC(N(C)Cc4cc(F)c5c(c4)CN(C4CCC(=O)NC4=O)C5=O)CC3)cc2OC)ncc1C(F)(F)F (stereo not shown) [GT-03730, 2-((2-((4-(4-(((2-(2,6-dioxopiperidin-3-yl)-7-fluoro-1-oxoisoindolin-5-yl)methyl)(methyl)amino)piperidin-1-yl)-2-methoxyphenyl)amino)-5-(trifluoromethyl)pyridin-4-yl)amino)-N-methylbenzamide]
IC50 (CAL-62): < 50 nM | IC50 (MDA-MB-231): 50 to 100 nM | IC50 (SR; Table 18, FAK inhibitor based): < 50 nM

CNC(=O)c1ccccc1Nc1cc(Nc2ccc(N3CCC(N(C)Cc4cccc5c4CN(C4CCC(=O)NC4=O)C5=O)CC3)cc2OC)ncc1C(F)(F)F (stereo not shown) [GT-03731, 2-((2-((4-(4-(((2-(2,6-dioxopiperidin-3-yl)-1-oxoisoindolin-4-yl)methyl)(methyl)amino)piperidin-1-yl)-2-methoxyphenyl)amino)-5-(trifluoromethyl)pyridin-4-yl)amino)-N-methylbenzamide]
IC50 (CAL-62): 500 to 1000 nM | IC50 (MDA-MB-231): 1000 to 5000 nM | IC50 (SR; Table 18, FAK inhibitor based): 50 to 100 nM

O=C1CCC(N2C(=O)c3ccc(CBr)cc3C2=O)C(=O)N1 (stereo not shown) [GT-03788]
IC50 for inhibiting the proliferation of tumor cells, CCRF-CEM (CCRF-CEM; Table 8, designed based on ER inhibitors): A+

Cn1ncc(-c2nc(NC3CCN(Cc4ccc5c(c4)CN(C4CCC(=O)NC4=O)C5=O)CC3)ncc2Cl)c1CC1CC1 (stereo not shown) [GT-04044, 3-(5-((4-((5-chloro-4-(5-(cyclopropylmethyl)-1-methyl-1H-pyrazol-4-yl)pyrimidin-2-yl)amino)piperidin-1-yl)methyl)-1-oxoisoindolin-2-yl)piperidine-2,6-dione]
IC50 for inhibiting the proliferation of tumor cells, CCRF-CEM (CCRF-CEM; [1]): A+

Cn1ncc(-c2nc(NC3CCN(Cc4ccc5c(c4F)CN(C4CCC(=O)NC4=O)C5=O)CC3)ncc2Cl)c1CC1CC1 (stereo not shown) [GT-04045, 3-(5-((4-((5-chloro-4-(5-(cyclopropylmethyl)-1-methyl-1H-pyrazol-4-yl)pyrimidin-2-yl)amino)piperidin-1-yl)methyl)-4-fluoro-1-oxoisoindolin-2-yl)piperidine-2,6-dione]
IC50 for inhibiting the proliferation of tumor cells, CAL-62 (CAL-62; [1]): A+ | IC50 for inhibiting the proliferation of tumor cells, CCRF-CEM (CCRF-CEM; [1]): A+

Cn1ncc(-c2nc(NC3CCN(Cc4cc5c(cc4F)C(=O)N(C4CCC(=O)NC4=O)C5)CC3)ncc2Cl)c1CC1CC1 (stereo not shown) [GT-04046, 3-(5-((4-((5-chloro-4-(5-(cyclopropylmethyl)-1-methyl-1H-pyrazol-4-yl)pyrimidin-2-yl)amino)piperidin-1-yl)methyl)-6-fluoro-1-oxoisoindolin-2-yl)piperidine-2,6-dione]
IC50 for inhibiting the proliferation of tumor cells, CAL-62 (CAL-62; [1]): A+ | IC50 for inhibiting the proliferation of tumor cells, CCRF-CEM (CCRF-CEM; [1]): A+

CNC(=O)c1ccccc1Nc1cc(Nc2cc(C)c(C3CCN(Cc4ccc5c(c4)C(=O)N(C4CCC(=O)NC4=O)C5=O)CC3)cc2OC(C)C)ncc1C(F)(F)F (stereo not shown) [GT-04083, 2-((2-((4-(1-((2-(2,6-dioxopiperidin-3-yl)-1,3-dioxoisoindolin-5-yl)methyl)piperidin-4-yl)-2-isopropoxy-5-methylphenyl)amino)-5-(trifluoromethyl)pyridin-4-yl)amino)-N-methylbenzamide]
IC50 (CCRF-CEM; Homo sapiens, Table 18, FAK inhibitor based, CCRF-CEM, read-out: IC50 inhibiting proliferation of tumor cells, CCRF-CEM): 100 to 500 nM

CN(C)C(=O)c1cc2cnc(Nc3ccc(N4CCNCC4)cn3)nc2n1C1CCCC1 [Ribociclib, reference compound]
IC50 (SW620): > 10000 nM
